Values joined by “and” are separate entries in the source; they are usually repeats but may differ in a detail not shown here. Equal values may be shown once.
Key:
[1] = biological target: T1, BRISC (Homo sapiens, UniProt P46736+Q15018+Q9NXR7); test: BRISC DUB activity assay (IQF K63-linked diubiquitin); format: biochemical; conditions: for Normalised V0: replicate columns
T1 construct: made in house; host or cells: Spodoptera frugiperda (Sf9) insect cells, MultiBac
Description: IQF assays were performed in DUB reaction buffer containing 50 mM HEPES–NaOH pH 7.0, 100 mM NaCl, 0.1 mg ml^−1 BSA, 1 mM DTT and 0.03% v/v Brij-35. […] The final concentration of BRISC WT, all BRISC mutants, HsBRISCΔLoop, MmBRISC and DrBRISCΔNΔC was 1 nM. Other enzymes were tested at the following concentrations: 5 nM ARISC (FL), 10 nM CfBRISCΔNΔC, 250 nM AMSH* (ref. [43]), 500 nM USP2 and 1 μM trypsin (Sigma, 9002-07-7). For Michaelis–Menten experiments, 1 nM BRISC with 0–1 μM IQF K63-linked diubiquitin substrate was used. Michaelis–Menten analyses and Lineweaver–Burk plots were calculated using GraphPad Prism (version 9.0).
To assess enzymatic activity, BRISC complexes were diluted to concentrations between 1 nM and 50 nM. […] Then, 20-μl enzyme reactions were carried out in 384-well black flat-bottom low-flange plates (Corning, 35373). DUB activity was measured using IQF K63-linked diubiquitin (LifeSensors, DU6303) at 50 nM. Cleaved diubiquitin was monitored by measuring fluorescence intensity (excitation, 544 nm; emission, 575 nm; dichroic mirror, 560 nm). Fluorescence intensity was measured every minute for 30 min at 30 °C. Fluorescence intensity units were plotted against time to generate a linear reaction progress curve, where the initial velocity (V0) corresponds to the gradient of the curve (typically achieved within 15 min). IC50 values were calculated using the GraphPad Prism (version 9.0) built-in dose–response equation for inhibitor concentration versus response (variable slope).

[2] = test system: ISG expression in MCF10A Cas9 cells expressing BRCC45 R137A; test: MCF10A BRCC45 R137A ISG expression (RT–qPCR); format: cell-based, human; design: scale not given here; conditions: BRCC45 KO+ BRCC45 R137A; replicate values
Description: Supplementary Protocols 1. Experimental procedures for cell biology experiments. […]
Media supplements including human insulin solution (Santa Cruz Biotechnology, #sc-360248), cholera toxin from vibrio (Sigma Aldrich, #C8052-2MG), recombinant human EGF (PeproTech, #AF-100-15-100µg), hydrocortisone (Sigma-Aldrich, #H-0888) were used to grow MCF10A cells. The 4–12% Bis-Tris SDS-PAGE gels, cell culture media, horse serum and other materials for tissue culture were purchased from Invitrogen. LipoD293 (SigmaGen, #SL100668) was used for all the transfections to generate knock out cell lines.
Immortalised breast epithelial cell line MCF10A were cultured in 10 cm plates with Dulbecco’s Modified Eagle Medium (DMEM) + F-12 (1:1) supplemented with 5% horse serum, 100 ng/mL cholera toxin, 10 […]
Real-time quantitative PCR
1x10^5 MCF10A cells were cultured as described above and seeded into 6 well plates. Cells were left to reach ultra-confluence. Once confluent, cells were washed with PBS and starved for 30 minutes in 2 mL DMEM + F-12 (1:1) supplemented with 1% horse serum. After 30 minutes cells were pre-treated with either DMSO (0.1%) (Control and IFN only) or BRISC inhibitor (2.5 µM) for 15 minutes. After 15 minutes, hIFN2α (75 ng/mL) was added to the media and mixed. Cells were treated for 4 hours. Cells were washed with ice cold PBS and scraped with cell scrapers into 350 µL RNAlater buffer and RNA […]
#79254). Isolated RNA was quantified using a Nanodrop spectrophotometer. RNA was converted into cDNA and the complementary DNA was used for real-time quantitative PCR analysis of expression of interferon stimulated genes (ISG15, IFIT1, IFIT2, IFITM1, CXCL10 and RNA18S) using an Applied Biosystems Quantstudio 6 RT-PCR system. All experiments were carried out in triplicate.

- inhibition of BRISC DUB activity (in words) ([1]; IQF diubiquitin assay): no inhibitory effect
- Normalised V0 ([1]; [Inhibitor] 0.013 μM): 0.9159 and 1.143 and 0.9058 and 0.9388
- Normalised V0 ([1]; [Inhibitor] 0.02 μM): 0.9923 and 1.0109
- Normalised V0 ([1]; [Inhibitor] 0.0399999 μM): 0.8997 and 0.9429
- Normalised V0 ([1]; [Inhibitor] 0.0599997 μM): 0.9873 and 1.113
- Normalised V0 ([1]; [Inhibitor] 0.0799994 μM): 0.9492 and 1.054
- Normalised V0 ([1]; [Inhibitor] 0.119998 μM): 0.9627 and 1.064
- Normalised V0 ([1]; [Inhibitor] 0.199996 μM): 0.9243 and 0.9333
- Normalised V0 ([1]; [Inhibitor] 0.499975 μM): 0.9206 and 1.055
- Normalised V0 ([1]; [Inhibitor] 0.799936 μM): 0.5226 and 1.107
- Normalised V0 ([1]; [Inhibitor] 1.25984 μM): 0.877 and 1.051
- Normalised V0 ([1]; [Inhibitor] 1.9996 μM): 0.8804 and 1.0497
- Normalised V0 ([1]; [Inhibitor] 3.159 μM): 0.8796 and 0.9314
- Normalised V0 ([1]; [Inhibitor] 5.19739 μM): 1.075 and 0.9343
- Normalised V0 ([1]; [Inhibitor] 7.99364 μM): 0.9828 and 1.083
- Normalised V0 ([1]; [Inhibitor] 12.7839 μM): 1.017 and 1.039
- Normalised V0 ([1]; [Inhibitor] 19.96 μM): 1.018 and 0.9724
- Normalised V0 ([1]; [Inhibitor] 31.4999 μM): 0.9031 and 1.019
- Normalised V0 ([1]; [Inhibitor] 50.147 μM): 0.9135 and 0.9224
- Normalised V0 ([1]; [Inhibitor] 79.7601 μM): 0.8955 and 0.9782
- Normalised V0 ([1]; [Inhibitor] 125.99 μM): 0.8989 and 0.9064
- Normalised V0 ([1]; [Inhibitor] 199.922 μM): 0.8256 and 0.9679
Compound: Cn1cc(NC(=O)c2c(Cl)cccc2Cl)c(C(=O)NC2CCN(C(=O)c3c(Cl)cccc3Cl)CC2)n1 [AP-5-145]
- ISG expression (Fig. 5b) [2]: 1.156 and 0.9393 and 0.8616 and 0.9356 and 0.9314
- ISG expression (Fig. 5c) [2]: 1.216 and 0.9273 and 0.916 and 0.9352 and 0.7895
- ISG expression (Fig. 5e) [2]: 1.091 and 0.9001 and 0.8733 and 0.8458 and 0.7765
- ISG expression (Fig. 5f) [2]: 1.662 and 0.8736 and 0.8819 and 0.8534 and 1.058
- ISG expression (Fig. 5d) [2]: 1.117 and 1.15 and 0.9989 and 1.074 and 0.7573

Source: publication PMC7617869, “Molecular glues that inhibit deubiquitylase activity and inflammatory signaling” (Nature Structural & Molecular Biology, 2025)
